Reference: ChEMBL document CHEMBL4184204, “Fusarithioamide B, a new benzamide derivative from the endophytic fungus Fusarium chlamydosporium with potent cytotoxic and antimicrobial activities” (Bioorg Med Chem, 2018)
In brackets after ≈: the same amount, converted by molar mass.

Experiments:
Serratia marcescens [1] = experiment: Antibacterial activity against Serratia marcescens AUMC B-55 assessed as diameter of inhibition zone after 24 hrs by agar disc diffusion method; format: functional
Escherichia coli [2] = experiment: Antibacterial activity against Escherichia coli AUMC B-53 assessed as diameter of inhibition zone after 24 hrs by agar disc diffusion method; format: functional
Trichophyton rubrum [3] = experiment: Antifungal activity against Trichophyton rubrum AUMC 1804 by microdilution method; format: functional
Pseudomonas aeruginosa [4] = experiment: Antibacterial activity against Pseudomonas aeruginosa AUMC B-73 by microdilution method; format: functional
Bacillus cereus [5] = experiment: Antibacterial activity against Bacillus cereus AUMC B-5 assessed as diameter of inhibition zone after 24 hrs by agar disc diffusion method; format: functional
Geotrichum candidum [6] = experiment: Antifungal activity against Geotrichum candidum AUMC 226 assessed as diameter of inhibition zone after 48 hrs by agar disc diffusion method; format: functional
Serratia marcescens [7] = experiment: Antibacterial activity against Serratia marcescens AUMC B-55 by microdilution method; format: functional
HCT-116 = experiment: Cytotoxicity against human HCT116 cells after 48 hrs by neutral red dye based assay; format: functional, cell-based; conditions: HCT-116, 48 h
KB = experiment: Cytotoxicity against human KB cells after 48 hrs by neutral red dye based assay; format: functional, cell-based
BT-549 = experiment: Cytotoxicity against human BT549 cells after 48 hrs by neutral red dye based assay; format: functional, cell-based; conditions: BT-549, 48 h
SK-MEL = experiment: Cytotoxicity against human SK-MEL cells after 48 hrs by neutral red dye based assay; format: functional, cell-based
Candida albicans [8] = experiment: Antifungal activity against Candida albicans AUMC 418 by microdilution method; format: functional
Staphylococcus aureus [9] = experiment: Antibacterial activity against Staphylococcus aureus AUMC B-54 by microdilution method; format: functional
Geotrichum candidum [10] = experiment: Antifungal activity against Geotrichum candidum AUMC 226 by microdilution method; format: functional
Staphylococcus aureus [11] = experiment: Antibacterial activity against Staphylococcus aureus AUMC B-54 assessed as diameter of inhibition zone after 24 hrs by agar disc diffusion method; format: functional
Bacillus cereus [12] = experiment: Antibacterial activity against Bacillus cereus AUMC B-5 by microdilution method; format: functional
Pseudomonas aeruginosa [13] = experiment: Antibacterial activity against Pseudomonas aeruginosa AUMC B-73 assessed as diameter of inhibition zone after 24 hrs by agar disc diffusion method; format: functional
Trichophyton rubrum [14] = experiment: Antifungal activity against Trichophyton rubrum AUMC 1804 assessed as diameter of inhibition zone after 48 hrs by agar disc diffusion method; format: functional
Escherichia coli [15] = experiment: Antibacterial activity against Escherichia coli AUMC B-53 by microdilution method; format: functional
MCF7 = experiment: Cytotoxicity against human MCF7 cells after 48 hrs by neutral red dye based assay; format: functional, cell-based; conditions: MCF7, 48 h
SK-OV-3 = experiment: Cytotoxicity against human SKOV3 cells after 48 hrs by neutral red dye based assay; format: functional, cell-based; conditions: SK-OV-3, 48 h
Candida albicans [16] = experiment: Antifungal activity against Candida albicans AUMC 418 assessed as diameter of inhibition zone after 48 hrs by agar disc diffusion method; format: functional
Escherichia coli [17] = experiment: Antibacterial activity against Escherichia coli AUMC B-53 assessed as diameter of inhibition zone at 10 ug/disc after 24 hrs by agar disc diffusion method; conditions: AUMC B-53, 24 h, read-out: DIZ
Staphylococcus aureus [18] = experiment: Antibacterial activity against Staphylococcus aureus AUMC B-54 assessed as diameter of inhibition zone at 10 ug/disc after 24 hrs by agar disc diffusion method; conditions: AUMC B-54, 24 h, read-out: DIZ
Serratia marcescens [19] = experiment: Antibacterial activity against Serratia marcescens AUMC B-55 assessed as diameter of inhibition zone at 10 ug/disc after 24 hrs by agar disc diffusion method; format: functional; conditions: AUMC B-55, 24 h, read-out: DIZ
Pseudomonas aeruginosa [20] = experiment: Antibacterial activity against Pseudomonas aeruginosa AUMC B-73 assessed as diameter of inhibition zone at 10 ug/disc after 24 hrs by agar disc diffusion method; conditions: AUMC B-73, 24 h, read-out: DIZ
Bacillus cereus [21] = experiment: Antibacterial activity against Bacillus cereus AUMC B-5 assessed as diameter of inhibition zone at 10 ug/disc after 24 hrs by agar disc diffusion method; format: functional; conditions: AUMC B-5, 24 h, read-out: DIZ
Candida albicans [22] = experiment: Antifungal activity against Candida albicans AUMC 418 assessed as diameter of inhibition zone at 5 ug/disc after 48 hrs by agar disc diffusion method; format: functional; conditions: AUMC 418, 48 h, read-out: DIZ
Trichophyton rubrum [23] = experiment: Antifungal activity against Trichophyton rubrum AUMC 1804 assessed as diameter of inhibition zone at 5 ug/disc after 48 hrs by agar disc diffusion method; format: functional; conditions: AUMC 1804, 48 h, read-out: DIZ
Geotrichum candidum [24] = experiment: Antifungal activity against Geotrichum candidum AUMC 226 assessed as diameter of inhibition zone at 5 ug/disc after 48 hrs by agar disc diffusion method; format: functional; conditions: AUMC 226, 48 h, read-out: DIZ

MIC (Trichophyton rubrum [3]) | MIC (Serratia marcescens [7]) | MIC (Candida albicans [8]) | MIC (Geotrichum candidum [10]) | MIC (Bacillus cereus [12]) | Compound | IC50 (HCT-116) | IC50 (KB) | IC50 (BT-549) | IC50 (SK-MEL) | IC50 (SK-OV-3) | further results
5.2 µg/mL (≈ 11.1 µM) | 92.1 µg/mL (≈ 197 µM) | 1.9 µg/mL (≈ 4.06 µM) | 6.9 µg/mL (≈ 14.8 µM) | 2.5 µg/mL (≈ 5.35 µM) | CC1NC(=O)C(C)(CC(=O)O)NC(CN)OC(CCS)NC(=O)c2ccccc2NC1=O (stereo not given) | 590 nM | 6900 nM | 90 nM | 11200 nM | 1230 nM | diameter of the inhibition zone (DIZ) (Serratia marcescens [1]): 4.5 mm; diameter of the inhibition zone (DIZ) (Escherichia coli [2]): 25.1 mm; MIC (Pseudomonas aeruginosa [4]): 68.4 µg/mL (≈ 146 µM); diameter of the inhibition zone (DIZ) (Bacillus cereus [5]): 23 mm; diameter of the inhibition zone (DIZ) (Geotrichum candidum [6]): 28.9 mm; MIC (Staphylococcus aureus [9]): 3.1 µg/mL (≈ 6.63 µM); diameter of the inhibition zone (DIZ) (Staphylococcus aureus [11]): 17.4 mm; diameter of the inhibition zone (DIZ) (Pseudomonas aeruginosa [13]): 7.2 mm; diameter of the inhibition zone (DIZ) (Trichophyton rubrum [14]): 40.3 mm; MIC (Escherichia coli [15]): 3.7 µg/mL (≈ 7.91 µM); IC50 (MCF7): 210 nM; diameter of the inhibition zone (DIZ) (Candida albicans [16]): 14.5 mm
 | 9.1 µg/mL (≈ 27.5 µM) |  |  | 2.9 µg/mL (≈ 8.75 µM) | O=C(O)c1cn(C2CC2)c2cc(N3CCNCC3)c(F)cc2c1=O [CIPROFLOXACIN] |  |  |  |  |  | zone of inhibition at 10 µg/disc (Escherichia coli [17]): 25.6 mm; zone of inhibition at 10 µg/disc (Staphylococcus aureus [18]): 15.3 mm; zone of inhibition at 10 µg/disc (Serratia marcescens [19]): 30.1 mm; zone of inhibition at 10 µg/disc (Pseudomonas aeruginosa [20]): 14.8 mm; zone of inhibition at 10 µg/disc (Bacillus cereus [21]): 21.2 mm
8.1 µg/mL (≈ 23.5 µM) |  | 2.8 µg/mL (≈ 8.12 µM) | 4.9 µg/mL (≈ 14.2 µM) |  | Clc1ccccc1C(c1ccccc1)(c1ccccc1)n1ccnc1 [CLOTRIMAZOLE] |  |  |  |  |  | zone of inhibition at 5 µg/disc (Candida albicans [22]): 17.9 mm; zone of inhibition at 5 µg/disc (Trichophyton rubrum [23]): 15.5 mm; zone of inhibition at 5 µg/disc (Geotrichum candidum [24]): 20.1 mm
 |  |  |  |  | COc1cccc2c1C(=O)c1c(O)c3c(c(O)c1C2=O)C[C@@](O)(C(=O)CO)C[C@@H]3O[C@H]1C[C@H](N)[C@H](O)[C@H](C)O1 [DOXORUBICIN] | 240 nM | 24 nM | 45 nM | 159 nM | 321 nM | 
